Measurements from PMC5391125, “Fatty acid DSF binds and allosterically activates histidine kinase RpfC of phytopathogenic bacterium Xanthomonas campestris pv. campestris to regulate quorum-sensing and virulence” (PLoS Pathogens, 2017).

What was measured:
[1] = target: T1, RpfC sensor peptide (Xanthomonas campestris pv. campestris, UniProt P0C0F7); assay: Circular dichroism of RpfC sensor peptide; details: sensor 60 μM; DSF 0, 100, 500 μM
T1 construct: GST (N, cleaved yes); made in house; host or cells: E. coli BL21 (DE3), pGEX6P-1
Procedure: To determine if DSF has impact on RpfC sensor conformation change, CD analysis was carried out on a Chirascan CD Spectrometer (Applied Photophysics, UK), with 10 mm pathlength and 1 nm bandwidth. Sensor protein with GST tag cleaved off was dissolved in buffer (50 mM Tris-HCl pH 8.5, 150 mM NaCl) to 60 μM. Dilute DSF with Sensor protein to a series of concentration (0 μM, 100 μM and 500 μM). CD wavelength scans were collected between 200 nm-260 nm. The spectra data were analyzed on the http://dichroweb.cryst.bbk.ac.uk website with Contin-LL method.

[2] = target: T2, soluble RpfC protein without input region (RpfC^Δinput) (Xanthomonas campestris pv. campestris, UniProt P0C0F7); assay: MST binding, soluble RpfC^Δinput; details: RpfC^Δinput 0.1 μM
T2 construct: a truncated, soluble RpfC protein (RpfC^Δinput) lacking the N-terminal input region (including sensor and TM domains) was obtained and purified; His6 (C); made in house; host or cells: E. coli BL21(DE3), pET30a

[3] = target: T3, soluble RpfC^Δinput (Xanthomonas campestris pv. campestris, UniProt P0C0F7); assay: Thermal shift assay, soluble RpfC^Δinput; assay type: binding
T3 construct: a truncated, soluble RpfC protein (RpfC^Δinput) lacking the N-terminal input region (including sensor and TM domains) was obtained and purified; His6 (C); made in house; host or cells: E. coli BL21(DE3), pET30a
Procedure: DSF was mixed with purified proteins or liposomes of RpfC to a final concentration of 0 μM, 5 μM or 10 μM respectively in the reaction buffer (50 mM Tris-HCl pH 7.8, 25 mM NaCl, 100 mM KCl). The protein concentration was 0.5–1 μg/μl. The TSA was performed by a Prometheus NT.48 nanoDSF device with a temperature gradient of 20–95°C, 1°C /min. Unfolding transition points were determined according to the changes of intrinsic tryptophan fluorescence at 330 nm, 350 nm. The ratio of fluorescence and the melting temperature (Tm) were calculated by the NT Melting Control software (NanoTemper Technologies).

[4] = target: T4, RpfC^FL IMV (Xanthomonas campestris pv. campestris, UniProt P0C0F7); assay: In vitro autokinase assay, RpfC^FL inverted membrane vesicles; assay type: biochemical; details: 10 μM DSF
T4 construct: His6 (C); made in house; host or cells: E. coli BL21(DE3), pET30a
Procedure: (§1) in vitro phosphorylation assay was conducted as described in our previous study. For autophosphoylation, RpfC liposomes or IMV were incubated with 100 μM ATP containing 10 μCi [γ-^32P]ATP (PerkinElmer, USA) in autophosphorylation buffer (50 mM Tris-HCl, pH 7.8, 2 mM DTT, 25 mM NaCl, 25 mM KCl, 5 mM MgCl2) for indicated time (28°C). If necessary, DSF was added into the mixture 20 min before addition of ATP. The reaction was stopped with 6 × SDS-PAGE loading buffer. The phosphorylated proteins were separated by 12% SDS-PAGE. After SDS-PAGE electrophoresis, gels were separated from back glass plate and placed in a Ziploc bag and exposed to a phosphor screen for 1 hour. The screen was scanned with a PhosphorImage system (Amersham Biosciences, USA) at […]. If necessary, signal intensity was measured by Quantity One software (Bio-Rad).

[5] = target: T5, RpfC^Q22A liposome (Xanthomonas campestris pv. campestris, UniProt P0C0F7, Q22A); assay: Autokinase assay, RpfC^Q22A liposome; assay type: biochemical; details: 0.75 μM DSF, 5 min
T5 construct: His6 (C); made in house; host or cells: E. coli BL21(DE3), pET30a
Procedure: as §1

[6] = target: T6, RpfC^FL (Xanthomonas campestris pv. campestris, UniProt P0C0F7); assay: Dose-response of DSF on RpfC autokinase activity; assay type: biochemical
T6 construct: His6 (C); made in house; host or cells: E. coli BL21(DE3), pET30a
Procedure: as §1

[7] = target: T7, RpfC^FL liposome (Xanthomonas campestris pv. campestris, UniProt P0C0F7); assay: In vitro autokinase (phosphorylation) assay, RpfC^FL liposome; assay type: biochemical; details: 10 μM DSF
T7 construct: His6 (C); made in house; host or cells: E. coli BL21(DE3), pET30a
Procedure: as §1

[8] = target: T8, RpfC^D17A liposome (Xanthomonas campestris pv. campestris, UniProt P0C0F7, D17A); assay: MST binding, RpfC^D17A liposome
T8 construct: His6 (C); made in house; host or cells: E. coli BL21(DE3), pET30a
Procedure: (§2) Binding reactions of RpfC to DSF was measured by microscale thermophoresis in a Monolith NT.Label Free (Nano Temper Technologies GMBH, Germany) instrument which detects changes in size, charge and conformation induced by binding. RpfC liposomes were collected with centrifugation of 200,000 g for 40 min and resuspended in MST buffer (50 mM Tris-HCl pH 7.8, 150 mM NaCl, 10 mM MgCl2, 0.05% Tween-20) to an approximate concentration of 0.1 μM. A range of concentration of DSF (range from 0.06 μM to 2 mM) in assay buffer (50 mM Tris-HCl pH 7.8, 150 mM NaCl, 10 mM MgCl2, 0.05% Tween-20, 5% methanol) was incubated with RpfC liposomes (1:1, v/v) for 10 minutes. The sample was loaded into the NT.Label Free standard capillaries and measured with 20% LED power and 40% MST power. Purified sensor protein was dissolved in reaction buffer (50 mM Tris-HCl pH 8.5, 150 mM NaCl, 0.1% Tween-20) to a final concentration as 8 μM. Dilute DSF from 0.0122 μM to 25 μM in buffer (50 mM Tris-HCl pH 8.5, 150 mM NaCl, 0.25‰ methanol). Different concentrations of DSF and sensor protein (1:1, v/v) were mixed and loaded into NT.Label Free standard capillaries. […]
(§3) Supplementary file ppat.1006304.s004.pdf: S4 Fig Substitution of essential amino acid impact DSF-RpfC interaction. Microscale thermophoresis (MST) was used to quantify the binding affinity between DSF and RpfC derivates. […]

[9] = target: T9, RpfC^S3A liposome (Xanthomonas campestris pv. campestris, UniProt P0C0F7, S3A); assay: MST binding, RpfC^S3A liposome
T9 construct: His6 (C); made in house; host or cells: E. coli BL21(DE3), pET30a
Procedure: as §2, §3

[10] = target: T1, RpfC sensor peptide; assay: MST binding, purified RpfC sensor peptide; details: sensor peptide with GST tag removed, read-out: dissociation constant (Kd)
Procedure: RpfC sensor fused with a GST tag was obtained and purified according to the GST Gene Fusion System Handbook (Amersham Biosciences) with GST Resin (TRANS). In order to acquire sensor peptide with GST tag cleaved off, on-column cleavage procedure was conducted. In brief, lysate of recombinant E.coli BL21 (DE3) strain was mixed with pre-equilibrated GST Resin with PBS buffer for ten minutes before loading into column. The column was washed by PBS buffer and resuspened with PreScission buffer (50 mM Tris-HCl, pH 8.5, 150 mM NaCl). Following the injection of 2 units PreScission Protease (GenScript), the column was sealed and placed on a rotator at 4°C. After 10 h of digestion, the flow fractions were collected, which contains preliminary sensor peptide with the GST tag being moved. If necessary, the sensor peptide was purified again by the GST Resin to get rid of uncleaved sensor-GST fusion protein. […]
Binding reactions of RpfC to DSF was measured by microscale thermophoresis in a Monolith NT.Label Free (Nano Temper Technologies GMBH, Germany) instrument which detects changes in size, charge and conformation induced by binding. […] The sample was loaded into the NT.Label Free standard capillaries and measured with 20% LED power and 40% MST power. […]

With `CC(C)CCCCCCC/C=C\C(=O)O` [DSF, cis-11-methyl-dodecenoic acid] the “ratio of strand in secondary structure” value [1] was “gradually elevated”, the “binding to DSF” value [2] was “didn’t bind” and the “thermal shift after DSF stimulation” value [3] was “no thermal shift was detected”. For the same compound, the “level of RpfC^FL-P phosphorylation compared with the control” value [4] was “approximately doubled”, the “time of increase in phosphorylation level post DSF addition” value [4] was 30 s and the “RpfC-P levels under DSF treatment” value [5] was “significant decrease”. For the same compound, the “DSF concentration at which RpfC^FL-P levels tapered off (saturation)” value [6] was roughly 20 µM, the “DSF concentration sufficient to elicit a detectable increase in RpfC^FL-P level” value [6] was 0.5 µM and the “level of RpfC^FL-P phosphorylation compared with the control” value [7] was “approximately doubled”. For the same compound, the “time of increase in phosphorylation level post DSF addition” value [7] was 2 min, the “binding between DSF and RpfC liposome” value [8] was “completely eliminated the binding” and the Kd ([9]; MST) was 613 ± 340 nM. For the same compound, the “increase of binding affinity compared with WT RpfC” value ([9]; S3A replacement) was “approximately 20%” and the Kd [10] was 140 ± 40 nM.
